The values that follow come from US8859541B2, “6-alkynylpyridines” (Boehringer Ingelheim International GmbH, priority 2012, dated 2014).

One test concerns the target T1, XIAP BIR3 (Homo sapiens, UniProt P98170).
T1 construct: covering amino acids 241 to 356; XIAP BIR3; made in house; host or cells: E. coli
The experiment in a line: XIAP BIR3 binding assay (DELFIA), displacement of SMAC peptide. The conditions noted are these: GST-fusion BIR3 domain (aa 241 to 356) 10 nM, SMAC peptide 10 nM; activity of the (S)-isomers. A digest of the protocol: (§1)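 Each BIR3 domain (10 nM) incubated with biotinylated N-terminal SMAC peptide (10 nM) and compound for 1 h at room temp in Tris/NaCl buffer with BSA, DTT and Triton X-100. Captured on streptavidin plates; bound BIR3 detected by Eu-labelled anti-GST time-resolved fluorescence, giving IC50 values.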

The target of a further test is T2, cIAP1 BIR3 (Homo sapiens, UniProt Q13490).
T2 construct: covering amino acids 256 to 363; cIAP1 BIR3; made in house; host or cells: E. coli
Description: cIAP1 BIR3 binding assay (DELFIA), displacement of SMAC peptide. The conditions noted are these: GST-fusion BIR3 domain (aa 256 to 363) 10 nM, SMAC peptide 10 nM; activity of the (S)-isomers. A digest of the protocol: as §1

Molecules are shown by their SMILES.

T2 sequence (Q13490 256-363): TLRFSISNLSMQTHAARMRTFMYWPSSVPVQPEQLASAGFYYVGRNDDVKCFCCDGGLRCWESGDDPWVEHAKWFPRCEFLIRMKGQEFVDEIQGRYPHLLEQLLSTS
T1 sequence (P98170 241-356): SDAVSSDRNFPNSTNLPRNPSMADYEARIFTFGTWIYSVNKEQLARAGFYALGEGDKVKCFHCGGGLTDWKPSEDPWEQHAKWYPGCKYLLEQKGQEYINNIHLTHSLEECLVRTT

The IC50 is the concentration that gives 50% inhibition. A lower IC50 goes with greater potency in that assay. Consider `CNC(C)C(=O)Nc1ccc(-c2cncc(-c3ccccc3)c2)c(C#Cc2ccccc2)n1` (stereo not shown) [Example 149, 2-(methylamino)-N-[6-(2-phenyl-ethynyl)-5-(5-phenylpyridin-3-yl)pyridin-2-yl]propanamide], for which the IC50 at XIAP BIR3 was found to be 195 nM; on cIAP1 BIR3, 80 nM.

`CNC(C)C(=O)Nc1ccc(-c2cnc(N3CCOCC3)nc2)c(C#Cc2ccccc2)n1` (stereo not shown) [Example 161, 2-(methylamino)-N-[5-(2-morpholin-4-ylpyrimidin-5-yl)-6-(2-phenylethynyl)pyridin-2-yl]-propanamide]: the IC50 at XIAP BIR3 turned out to be 102 nM; at cIAP1 BIR3, 22 nM.

Regarding `Cc1noc(C)c1-c1ccc(NC(=O)C(C)N)nc1C#Cc1ccccc1` (stereo not shown) [Example 165, 2-amino-N-[5-(3,5-dimethyl-1,2-oxazol-4-yl)-6-(2-phenylethynyl)-pyridin-2-yl]propanamide], the 50% inhibitory concentration (IC50) at XIAP BIR3 is 67 nM; on cIAP1 BIR3 it was 1 nM.

Take `[2H]C([2H])([2H])NC(C)C(=O)Nc1ccc(-c2c(C)noc2C)c(C#Cc2ccccc2)n1` (stereo not shown) [Example 168, N-[5-(3,5-dimethyl-1,2-oxazol-4-yl)-6-(2-phenylethynyl)pyridin-2-yl]-2-(trideuteriomethylamino)propanamide]: the IC50 at XIAP BIR3 is 151 nM; at cIAP1 BIR3, 3 nM.

As for `CNC(C)C(=O)Nc1ccc(-c2c(C)nc3ccccn23)c(C#Cc2ccccc2)n1` (stereo not shown) [Example 174, 2-(methylamino)-N-[5-(2-methyl-imidazo[1,2-a]pyridin-3-yl)-6-(2-phenylethynyl)pyridin-2-yl]-propanamide], the 50% inhibitory concentration (IC50) at XIAP BIR3 is 51 nM; on cIAP1 BIR3, 1 nM.

Take `CNC(C)C(=O)Nc1ccc(-c2ccc3c(c2)C(=O)NC3=O)c(C#Cc2ccccc2)n1` (stereo not shown) [Example 175, N-[5-(1,3-dioxoisoindol-5-yl)-6-(2-phenylethynyl)pyridin-2-yl]-2-(methylamino)propanamide]: the IC50 at XIAP BIR3 turned out to be 103 nM; on cIAP1 BIR3, 16 nM.

For `CNC(C)C(=O)Nc1ccc(-c2cc(C(=O)OC)cc(C(=O)OC)c2)c(C#Cc2ccccc2)n1` (stereo not shown) [Example 176, dimethyl 5-[6-[[2-(methylamino)-propanoyl]amino]-2-(2-phenyl-ethynyl)pyridin-3-yl]benzene-1,3-dicarboxylate], the results for the IC50 on XIAP BIR3 and at cIAP1 BIR3 were 50 nM and 23 nM, respectively.

With `CNC(C)C(=O)Nc1ccc(-c2ccc3c(c2)C(=O)c2ccccc2-3)c(C#Cc2ccccc2)n1` (stereo not shown) [Example 177, 2-(methylamino)-N-[5-(9-oxofluoren-2-yl)-6-(2-phenyl-ethynyl)pyridin-2-yl]propanamide], the figures for the IC50 at XIAP BIR3 and at cIAP1 BIR3 were 337 nM and 92 nM, respectively.

In the case of `CNC(=O)c1ccc(-c2ccc(NC(=O)C(C)NC)nc2C#Cc2ccccc2)cn1` (stereo not shown) [Example 182, N-methyl-5-[6-[[2-(methyl-amino)propanoyl]amino]-2-(2-phenylethynyl)pyridin-3-yl]-pyridine-2-carboxamide], the results for the concentration for half-maximal inhibition (IC50) at XIAP BIR3 and at cIAP1 BIR3 were 135 nM and 36 nM, respectively.

With `CNC(C)C(=O)Nc1ccc(-c2nnc(Cl)c3ccccc23)c(C#Cc2ccccc2)n1` (stereo not shown) [Example 184, N-[5-(4-chlorophthalazin-1-yl)-6-(2-phenylethynyl)pyridin-2-yl]-2-(methylamino)propanamide], the IC50 on XIAP BIR3 was 138 nM; on cIAP1 BIR3, 17 nM.

On to `CNC(C)C(=O)Nc1ccc(-c2c(-c3ccncc3)nc3cc(C)ccn23)c(C#Cc2ccccc2)n1` (stereo not shown) [Example 185, 2-(methylamino)-N-[5-(7-methyl-2-pyridin-4-ylimidazo[1,2-a]-pyridin-3-yl)-6-(2-phenyl-ethynyl)pyridin-2-yl]propanamide], for which the values for the half-inhibitory concentration (IC50) at XIAP BIR3 and on cIAP1 BIR3 were 16 nM and 1 nM, respectively.

`CNC(C)C(=O)Nc1ccc(-c2sc(C)nc2C)c(C#Cc2ccccc2)n1` (stereo not shown) [Example 186, N-[5-(2,4-dimethyl-1,3-thiazol-5-yl)-6-(2-phenylethynyl)pyridin-2-yl]-2-(methylamino)propanamide]: the IC50 was 151 nM on XIAP BIR3 and 16 nM at cIAP1 BIR3.

Consider `CNC(C)C(=O)Nc1ccc(-c2ccc3ncn(C)c(=O)c3c2)c(C#Cc2ccccc2)n1` (stereo not shown) [Example 187, 2-(methylamino)-N-[5-(3-methyl-4-oxoquinazolin-6-yl)-6-(2-phenylethynyl)pyridin-2-yl]-propanamide], for which the figures for the IC50 on XIAP BIR3 and at cIAP1 BIR3 were 49 nM and 9 nM, respectively.

For the compound `CNC(C)C(=O)Nc1ccc(-c2cnn(C)c2C)c(C#Cc2ccccc2)n1` (stereo not shown) [Example 189, N-[5-(1,5-dimethylpyrazol-4-yl)-6-(2-phenylethynyl)pyridin-2-yl]-2-(methylamino)propanamide], the figures for the IC50 on XIAP BIR3 and at cIAP1 BIR3 were 87 nM and 30 nM, respectively.

Take `CNC(C)C(=O)Nc1ccc(-c2cnc(N3CCN(C)CC3)nc2)c(C#Cc2ccccc2)n1` (stereo not shown) [Example 191, 2-(methylamino)-N-[5-[2-(4-methylpiperazin-1-yl)pyrimidin-5-yl]-6-(2-phenylethynyl)pyridin-2-yl]propanamide]: the IC50 at XIAP BIR3 amounted to 102 nM; on cIAP1 BIR3, 22 nM.

Consider `CNC(C)C(=O)Nc1ccc(-c2cnc(-n3ccnc3)nc2)c(C#Cc2ccccc2)n1` (stereo not shown) [Example 192, N-[5-(2-imidazol-1-ylpyrimidin-5-yl)-6-(2-phenylethynyl)pyridin-2-yl]-2-(methylamino)propan-amide], for which the IC50 on XIAP BIR3 amounted to 76 nM; at cIAP1 BIR3, 22 nM.

For the compound `CNC(C)C(=O)Nc1ccc(-c2cnc(C(=O)OC)nc2)c(C#Cc2ccccc2)n1` (stereo not shown) [Example 194, methyl 5-[6-[[2-(methylamino)-propanoyl]amino]-2-(2-phenyl-ethynyl)pyridin-3-yl]pyrimidine-2-carboxylate], the figures for the IC50 on XIAP BIR3 and at cIAP1 BIR3 were 102 nM and 23 nM, respectively.

Regarding `CNC(C)C(=O)Nc1ccc(-c2c(C)ncn2C)c(C#Cc2ccccc2)n1` (stereo not shown) [Example 195, N-[5-(3,5-dimethylimidazol-4-yl)-6-(2-phenylethynyl)pyridin-2-yl]-2-(methylamino)propanamide], the results for the IC50 on XIAP BIR3 and on cIAP1 BIR3 were 269 nM and 4 nM, respectively.

As to `CNC(C)C(=O)Nc1cc(C(F)(F)F)cc(C#Cc2ccccc2)n1` (stereo not shown) [Example 198, 2-(methylamino)-N-[6-(2-phenylethynyl)-4-(trifluoromethyl)pyridin-2-yl]propanamide], the IC50 at XIAP BIR3 came to 10500 nM; on cIAP1 BIR3 it was 4930 nM.

Regarding `CC(N)C(=O)Nc1cc2ccccc2c(C#Cc2ccsc2)n1` (stereo not shown) [Example 203, 2-amino-N-[1-(2-thiophen-3-ylethynyl)isoquinolin-3-yl]propanamide], the IC50 on XIAP BIR3 was determined as 760 nM; on cIAP1 BIR3, 251 nM.

Turning to `CC(N)C(=O)Nc1cc2ccccc2c(C#Cc2ccccc2)n1` (stereo not shown) [Example 204, 2-amino-N-[1-(2-phenyl-ethynyl)isoquinolin-3-yl]-propanamide], the half-maximal inhibitory concentration (IC50) on XIAP BIR3 was 703 nM; on cIAP1 BIR3, 430 nM.

For the compound `CC(N)C(=O)Nc1cc2ccccc2c(C#Cc2ccccn2)n1` (stereo not shown) [Example 206, 2-amino-N-[1-(2-pyridin-2-ylethynyl)isoquinolin-3-yl]-propanamide], the 50% inhibitory concentration (IC50) is 3620 nM at XIAP BIR3 and 880 nM on cIAP1 BIR3.

For `CC(N)C(=O)Nc1cc2ccccc2c(C#Cc2cccs2)n1` (stereo not shown) [Example 208, 2-amino-N-[1-(2-thiophen-2-ylethynyl)isoquinolin-3-yl]-propanamide], the concentration for half-maximal inhibition (IC50) at XIAP BIR3 was determined as 467 nM; at cIAP1 BIR3 it was 255 nM.

As for `CC(N)C(=O)Nc1cccc(C#Cc2cccc(C(=O)N3CCOCC3)c2)n1` (stereo not shown) [Example 213, 2-amino-N-[6-[2-[3-(morpholine-4-carbonyl)-phenyl]ethynyl]pyridin-2-yl]propanamide], the IC50 stood at 9950 nM on XIAP BIR3 and 2120 nM at cIAP1 BIR3.

With `CC(N)C(=O)Nc1cccc(C#Cc2cccnc2)n1` (stereo not shown) [Example 215, 2-amino-N-[6-(2-pyridin-3-ylethynyl)pyridin-2-yl]propanamide], the IC50 at XIAP BIR3 is 9700 nM; on cIAP1 BIR3 it was 985 nM.

`CC(N)C(=O)Nc1cccc(C#Cc2cccs2)n1` (stereo not shown) [Example 217, 2-amino-N-[6-(2-thiophen-2-ylethynyl)pyridin-2-yl]propanamide]: the IC50 at XIAP BIR3 came to 895 nM; on cIAP1 BIR3, 206 nM.

Take `COC(=O)c1cccc(C#Cc2cccc(NC(=O)C(C)N)n2)c1` (stereo not shown) [Example 223, methyl 3-[2-[6-[[2-aminopropanoyl]amino]pyridin-2-yl]ethynyl]benzoate]: the results for the half-maximal inhibitory concentration (IC50) at XIAP BIR3 and on cIAP1 BIR3 were 2460 nM and 2620 nM, respectively.

In the case of `CC(N)C(=O)Nc1cc2ccccc2c(C#Cc2cscn2)n1` (stereo not shown) [Example 226, 2-amino-N-[1-[2-(1,3-thiazol-4-yl)ethynyl]isoquinolin-3-yl]propanamide], the concentration for half-maximal inhibition (IC50) at XIAP BIR3 came out at 1200 nM; at cIAP1 BIR3, 332 nM.

For `Cc1cc(C)cc(C#Cc2nc(NC(=O)C(C)N)cc3ccccc23)c1` (stereo not shown) [Example 228, 2-amino-N-[1-[2-(3,5-dimethyl-phenyl)ethynyl]isoquinolin-3-yl]propanamide], the IC50 stood at 1920 nM on XIAP BIR3 and 1470 nM at cIAP1 BIR3.

In the case of `CC(N)C(=O)Nc1cc2ccccc2c(C#Cc2cc(F)cc(F)c2)n1` (stereo not shown) [Example 229, 2-amino-N-[1-[2-(3,5-difluorophenyl)ethynyl]-isoquinolin-3-yl]propanamide], the IC50 on XIAP BIR3 is 2420 nM; at cIAP1 BIR3 it was 589 nM.

Take `Cc1ccccc1C#Cc1cccc(NC(=O)C(C)N)n1` (stereo not shown) [Example 232, 2-amino-N-[6-[2-(2-methylphenyl)ethynyl]pyridin-2-yl]propanamide]: the 50% inhibitory concentration (IC50) on XIAP BIR3 was found to be 1250 nM; on cIAP1 BIR3 it was 672 nM.

For `CC(N)C(=O)Nc1cccc(C#Cc2ccc3cc[nH]c3c2)n1` (stereo not shown) [Example 234, 2-amino-N-[6-[2-(1H-indol-6-yl)ethynyl]pyridin-2-yl]propanamide], the IC50 amounted to 2730 nM at XIAP BIR3 and 1230 nM on cIAP1 BIR3.
